In US8071797B2 (priority 2008, dated 2011):

These molecules were tested against T1, HCV polymerase (NS5B570n-Con1) (Hepatitis C virus genotype 1b, UniProt Q9WMX2) (assay: HCV NS5B RNA polymerase activity assay). Conditions: IC50 NS5B polymerase assay, Table I.
T1 construct: contains a 21 amino acid deletion at the C-terminus relative to the full-length HCV polymerase; 6-histidine (N); made in house; host or cells: E. coli BL21 (DE) pLysS
Type: biochemical, HCV Con1 strain
Description: The enzymatic activity of HCV polymerase (NS5B570n-Con1) was measured as the incorporation of radiolabeled nucleotide monophosphates into acid insoluble RNA products. Unincorporated radiolabeled substrate was removed by filtration and scintillant was added to the washed and dried filter plate containing radiolabeled RNA product. The amount of RNA product generated by NS5B570-Con1 at the end of the reaction was directly proportional to the amount of light emitted by the scintillant.
The N-terminal 6-histidine tagged HCV polymerase, derived from HCV Con1 strain, genotype 1b (NS5B570n-Con1) contains a 21 amino acid deletion at the C-terminus relative to the full-length HCV polymerase and was purified from E. coli strain BL21 (DE) pLysS. The construct, containing the coding sequence of HCV NS5B Con1 (GenBank accession number AJ242654) was inserted into the plasmid construct pETI 7b, downstream of a T7 promoter expression cassette and transformed into E. coli. A single colony was grown overnight as a starter culture and later used inoculate 10 L of LB media supplemented with 100 μg/mL ampicillin at 37° C. Protein expression was induced by the addition of 0.25 mM isopropyl-β-D-thiogalactopyranoside (IPTG) when optical density at […] of the culture was between 0.6 and 0.8 and cells were harvested after 16 to 18 h at 30° C. NS5B570n-Con1 was purified to homogeneity using a three-step protocol including subsequent column chromatography on Ni-NTA, SP-Sepharose HP and Superdex 75 resins.
Each 50 μl enzymatic reaction contained 20 nM RNA template derived from the complementary sequence of the Internal Ribosome Entry Site (cIRES), 20 nM NS5B570n-Con1 enzyme, 0.5 μCi of tritiated UTP (Perkin Elmer catalog no. TRK-412; specific activity: 30 to 60 Ci/mmol; stock solution concentration from 7.5×10^-5 M to 20.6×10^-6 M), 1 μM each ATP, CTP, and GTP, 40 mM Tris-HCl pH 8.0, 40 mM NaCl, 4 mM DTT (dithiothreitol), 4 mM MgCl2, and 5 μl of compound serial diluted in DMSO. Reaction mixtures were assembled in 96-well filter plates (cat #MADVN0B, Millipore Co.) and incubated for 2 h at 30° C. Reactions were stopped by addition of 10% final (v/v) trichloroacetic acid and incubated for 40 min at 4° C. Reactions were filtered, washed with 8 reaction volumes of 10% (v/v) trichloroacetic acetic acid, 4 reaction volumes of 70% (v/v) ethanol, air dried, and 25 μl of scintillant (Microscint 20, Perkin-Elmer) was added to each reaction well.
The amount of light emitted from the scintillant was converted to counts per minute (CPM) on a Topcount® plate reader (Perkin-Elmer, Energy Range: Low, Efficiency Mode Normal, Count Time: 1 min, Background Subtract: none, Cross talk reduction: Off).
Data was analyzed in Excel® (Microsoft®) and ActivityBase® (idbsg). The reaction in the absence of enzyme was used to determine the background signal, which was subtracted from the enzymatic reactions. Positive control reactions were performed in the absence of compound, from which the background corrected activity was set as 100% polymerase activity. All data was expressed as a percentage of the positive control. The compound concentration at which the enzyme-catalyzed rate of RNA synthesis was reduced by 50% (IC50) was calculated by fitting
[formula] equation (t) to the data.where “Y” corresponds to the relative enzyme activity (in %), “% Min” is the residual relative activity at saturating compound concentration, “% Max” is the relative maximum enzymatic activity, “X” corresponds to the compound concentration, and “S” is the Hill coefficient (or slope).

Q: For CNC(=O)c1c(-c2ccc(Oc3ccc(F)cc3)cc2)oc2cc(N(CC3CCOCC3)S(C)(=O)=O)c(C3CC3)cc12 [Compound I-56], which IC50 is on record?
A: The IC50 was 157 nM.

Q: CNC(=O)c1c(-c2ccc(Oc3ccc(F)cc3)cc2)oc2cc(N(CCOC)S(C)(=O)=O)c(C3CC3)cc12 [Compound I-57] was tested. Which IC50 did it give?
A: The IC50 was 110 nM.

Q: For CNC(=O)c1c(-c2ccc(Oc3ccc(F)cc3F)cc2)oc2cc(N(CCO)S(C)(=O)=O)c(C3CC3)cc12 [Compound I-58], which IC50 is on record?
A: Its IC50 is 85 nM.

Q: CNC(=O)c1c(-c2ccc(Oc3ccccc3F)cc2)oc2cc(N(C)S(C)(=O)=O)c(C)cc12 [Compound I-59, 2-[4-(2-Fluoro-phenoxy)-phenyl]-6-(methanesulfonyl-methyl-amino)-5-methyl-benzofuran-3-carboxylic acid methylamide] was tested. Which IC50 did it give?
A: Its IC50 is 93 nM.

Q: How did the IC50 turn out when CNC(=O)c1c(-c2ccc(Oc3ccc(F)cc3)cc2)oc2cc(N(CC3CCOC3)S(C)(=O)=O)c(C3CC3)cc12 (centres unmarked) [Compound I-60] was run?
A: Its IC50 is 115 nM.

Q: CNC(=O)c1c(-c2ccc(Oc3ccccc3F)cc2)oc2cc(N(CCO)S(C)(=O)=O)c(C3CC3)cc12 [Compound I-61] was tested. Which IC50 did it give?
A: The IC50 was 35 nM.

Q: With CNC(=O)c1c(-c2ccc(Nc3ccc(F)cc3)cc2)oc2cc(N(CCO)S(C)(=O)=O)c(C3CC3)cc12 [Compound I-62] as the molecule, how does the IC50 read?
A: Its IC50 is 13 nM.

Q: How did the IC50 turn out when CCCc1cc2c(C(=O)NC)c(-c3ccc(Oc4ccccc4F)cc3)oc2cc1N(CCO)S(C)(=O)=O [Compound I-65, 2-[4-(2-Fluoro-phenoxy)-phenyl]-6-[(2-hydroxy-ethyl)-methanesulfonyl-amino]-5-propyl-benzofuran-3-carboxylic acid methylamide] was run?
A: The IC50 was 21 nM.

Q: How did the IC50 turn out when CNC(=O)c1c(-c2ccc(Oc3ccc(F)cc3)cc2)oc2cc(N(C)S(C)(=O)=O)c(Cl)cc12 [Compound I-66] was run?
A: The IC50 was 29 nM.

Q: For CNC(=O)c1c(-c2ccc(Oc3ccc(F)cc3)cc2)oc2cc(N(CC(C)O)S(C)(=O)=O)c(C3CC3)cc12 (centres unmarked) [Compound I-68], which IC50 is on record?
A: Its IC50 is 26 nM.

Q: How did the IC50 turn out when CNC(=O)c1c(-c2ccc(Oc3ccc(F)cc3)cc2)oc2cc(N(CC3COC3)S(C)(=O)=O)c(C3CC3)cc12 [Compound I-70, 5-Cyclopropyl-2-[4-(4-fluoro-phenoxy)-phenyl]-6-(methanesulfonyl-oxetan-3-ylmethyl-amino)-benzofuran-3-carboxylic acid methylamide] was run?
A: The IC50 was 13 nM.

Q: With CNC(=O)c1c(-c2ccc(Oc3ccc(F)cc3)cc2)oc2cc(N(Cc3ccncc3)S(C)(=O)=O)c(C3CC3)cc12 [Compound I-71] as the molecule, how does the IC50 read?
A: The IC50 was 9 nM.

Q: Which IC50 does the source give for CNC(=O)c1c(-c2ccc(Oc3ccc(F)cc3)cc2)oc2cc(N(C3CCOCC3)S(C)(=O)=O)c(C3CC3)cc12 [Compound I-72] here?
A: Its IC50 is 591 nM.

Q: For CNC(=O)c1c(-c2ccc(Oc3ccc(F)cc3)cc2)oc2cc(N(CC(N)=O)S(C)(=O)=O)c(C3CC3)cc12 [Compound I-73], which IC50 is on record?
A: The IC50 was 56 nM.

Q: Which IC50 does the source give for CNC(=O)c1c(-c2ccc(Oc3ccc(F)cc3)cc2)oc2cc(N(C3CNC3)S(C)(=O)=O)c(C3CC3)cc12 [Compound I-75] here?
A: Its IC50 is 300 nM.

Q: CNC(=O)c1c(-c2ccc(Oc3ccc(F)cc3)cc2)oc2cc(N(C3CCNCC3)S(C)(=O)=O)c(C3CC3)cc12 [Compound I-76] was tested. Which IC50 did it give?
A: Its IC50 is 376 nM.

Q: With CNC(=O)c1c(-c2ccc(Oc3ccc(F)cc3)cc2)oc2cc(N(CC(C)(C)O)S(C)(=O)=O)c(C3CC3)cc12 [Compound I-78] as the molecule, how does the IC50 read?
A: The IC50 was 55 nM.

Q: For CNC(=O)c1c(-c2ccc(Oc3ccc(F)cc3)cc2)oc2cc(N(CCNC(C)=O)S(C)(=O)=O)c(C3CC3)cc12 [Compound I-79], which IC50 is on record?
A: Its IC50 is 68 nM.

Q: Which IC50 does the source give for CNC(=O)c1c(-c2ccc(Oc3ccc(F)cc3)cc2)oc2cc(N(CCNS(C)(=O)=O)S(C)(=O)=O)c(C3CC3)cc12 [Compound I-80] here?
A: The IC50 was 179 nM.

Q: With CNC(=O)c1c(-c2ccc(Oc3ccc(F)cc3)cc2)oc2cc(N(CCSC)S(C)(=O)=O)c(C3CC3)cc12 [Compound I-81, 5-Cyclopropyl-2-[4-(4-fluoro-phenoxy)-phenyl]-6-[methanesulfonyl-(2-methylsulfanyl-ethyl)-amino]-benzofuran-3-carboxylic acid methylamide] as the molecule, how does the IC50 read?
A: The IC50 was 16 nM.

Q: CNC(=O)c1c(-c2ccc(Oc3ccc(F)cc3)cc2)oc2cc(N(C3CCOC3)S(C)(=O)=O)c(C3CC3)cc12 (centres unmarked) [Compound I-84] was tested. Which IC50 did it give?
A: Its IC50 is 155 nM.

Q: CNC(=O)c1c(-c2ccc(Oc3ccccc3)cc2)oc2cc(-c3c(C)noc3C)c(C3CC3)cc12 [Compound I-85, 5-Cyclopropyl-6-(3,5-dimethyl-isoxazol-4-yl)-2-(4-phenoxy-phenyl)-benzofuran-3-carboxylic acid methylamide] was tested. Which IC50 did it give?
A: The IC50 was 344 nM.

Q: For CNC(=O)c1c(-c2ccc(Oc3ccccc3)cc2)oc2cc(C(C)=O)c(C3CC3)cc12 [Compound I-86], which IC50 is on record?
A: Its IC50 is 362 nM.

Q: Which IC50 does the source give for CNC(=O)c1c(-c2ccc(Oc3ccc(F)cc3)cc2)oc2cc(N(CC3(C)COC3)S(C)(=O)=O)c(C3CC3)cc12 [Compound I-87] here?
A: The IC50 was 134 nM.

Q: CNC(=O)c1c(-c2ccc(Oc3ccc(F)cc3)cc2)oc2cc(N(Cc3cncnc3)S(C)(=O)=O)c(C3CC3)cc12 [Compound I-88] was tested. Which IC50 did it give?
A: Its IC50 is 26 nM.

Q: Which IC50 does the source give for CNC(=O)c1c(-c2ccc(Oc3ccccc3)cc2)oc2cc(-c3ccc[nH]3)c(C3CC3)cc12 [Compound I-89, 5-Cyclopropyl-2-(4-phenoxy-phenyl)-6-(1H-pyrrol-2-yl)-benzofuran-3-carboxylic acid methylamide] here?
A: The IC50 was 722 nM.

Q: CNC(=O)c1c(-c2ccc(Oc3ccccc3)cc2)oc2cc(C3CCCN3)c(C3CC3)cc12 (centres unmarked) [Compound I-90, 5-5-Cyclopropyl-2-(4-phenoxy-phenyl)-6-pyrrolidin-2-yl-benzofuran-3-carboxylic acid methylamideyclopropyl-2-(4-phenoxy-phenyl)-6-pyrrolidin-2-yl-benzofuran-3-carboxylic acid methylamide] was tested. Which IC50 did it give?
A: Its IC50 is 254 nM.

Q: How did the IC50 turn out when CNC(=O)c1c(-c2ccc(Oc3ccc(F)cc3)cc2)oc2cc(N(C3CCNC3)S(C)(=O)=O)c(C3CC3)cc12 (centres unmarked) [Compound I-91, 5-Cyclopropyl-2-[4-(4-fluoro-phenoxy)-phenyl]-6-(methanesulfonyl-pyrrolidin-3-yl-amino)-benzofuran-3-carboxylic acid methylamide] was run?
A: Its IC50 is 24 nM.

Q: CNC(=O)c1c(-c2ccc(Oc3ccc(F)cc3)cc2)oc2cc(N(CCCCN)S(C)(=O)=O)c(C3CC3)cc12 [Compound I-92] was tested. Which IC50 did it give?
A: The IC50 was 56 nM.

Q: CNC(=O)c1c(-c2ccc(Oc3ccc(F)cc3)cc2)oc2cc(N(C3CCN(S(C)(=O)=O)C3)S(C)(=O)=O)c(C3CC3)cc12 (centres unmarked) [Compound I-94, 5-cyclopropyl-2-[4-(4-fluoro-phenoxy)-phenyl]-6-[methanesulfonyl-(1-methanesulfonyl-pyrrolidin-3-yl)-amino]-benzofuran-3-carboxylic acid methylamide] was tested. Which IC50 did it give?
A: The IC50 was 28 nM.

Q: How did the IC50 turn out when CNC(=O)c1c(-c2ccc(Oc3ccc(F)cc3)cc2)oc2cc(N(C(C)CN)S(C)(=O)=O)c(C3CC3)cc12 (centres unmarked) [Compound I-95] was run?
A: Its IC50 is 60 nM.

Q: With CNC(=O)c1c(-c2ccc(Oc3ccc(F)cc3)cc2)oc2cc(N(CCCC#N)S(C)(=O)=O)c(C3CC3)cc12 [Compound I-96] as the molecule, how does the IC50 read?
A: Its IC50 is 7 nM.

Q: CNC(=O)c1c(-c2ccc(Oc3ccc(F)cc3)cc2)oc2cc(N(CC(O)CN)S(C)(=O)=O)c(C3CC3)cc12 (centres unmarked) [Compound I-97, 6-[(3-Amino-2-hydroxy-propyl)-methanesulfonyl-amino]-5-cyclopropyl-2-[4-(4-fluoro-phenoxy)-phenyl]-benzofuran-3-carboxylic acid methylamide] was tested. Which IC50 did it give?
A: The IC50 was 48 nM.

Q: How did the IC50 turn out when CNC(=O)c1c(-c2ccc(Oc3ccc(F)cc3)cc2)oc2cc(N(C3CCC(N)CC3)S(C)(=O)=O)c(C3CC3)cc12 (centres unmarked) [Compound I-98, 6-[(4-Amino-cyclohexyl)-methanesulfonyl-amino]-5-cyclopropyl-2-[4-(4-fluoro-phenoxy)-phenyl]-benzofuran-3-carboxylic acid methylamide] was run?
A: The IC50 was 44 nM.

Q: Which IC50 does the source give for CNC(=O)c1c(-c2ccc(Oc3ccc(F)cc3)cc2)oc2cc(N([C@H]3CC[C@@H](O)CC3)S(C)(=O)=O)c(C3CC3)cc12 [Compound I-99] here?
A: The IC50 was 23 nM.
